Experimental data published in patent US9586975B2, “Macrocyclic salt-inducible kinase inhibitors” (ONCODESIGN S.A., priority 2013, dated 2017).
Structures can show the parent of a compound that is named as a salt.

Legend:
SIK2 recombinant protein = target: T1, SIK2 recombinant protein (Homo sapiens, UniProt Q9H0K1); test: Radiometric protein kinase assay (33PanQinase Activity Assay) for inhibition of SIK2 kinase; type: biochemical; settings: for remaining activity at 0.1 µM / remaining activity at 1 µM: 1 h; for remaining activity at 0.1 µM: compound at 0.1 μM; for remaining activity at 1 µM: compound at 1 μM; for IC50: ATP 1.0 μM, SIK2 0.3 nM, substrate RBER-Chktide
T1 construct: purchased Invitrogen Corporation
Description: The inhibition of SIK2 kinase was assessed using SIK2 recombinant protein in an in vitro peptide-based kinase assay.
A radiometric protein kinase assay (^33PanQinase® Activity Assay) is used for measuring the kinase activity. All assays are performed in 96-well FlashPlates™ from Perkin Elmer in a 50 μl reaction volume. The reaction cocktail is […] in 4 steps in the following order: • 10 μl of non-radioactive ATP solution (in H2O) • 25 μl of assay buffer/[γ-^33P]-ATP mixture • 5 μl of test sample in 10% DMSO • 10 μl of enzyme/substrate mixture
The assay for SIK2 contains 70 mM HEPES-NaOH pH 7.5, 3 mM MgCl2, 3 mM MnCl2, 3 μM Na-orthovanadate, 1.2 mM DTT, 50 μg/ml PEG20000, ATP (1.0 μM), [γ-^33P]-ATP (approx. 5×10^05 cpm per well), protein kinase SIK2 (0.3 nM) and substrate (RBER-Chktide), 2.0 μg/50 μl).
The kinase is obtained from Invitrogen Corporation.
The reaction cocktails were incubated at 30° C. for 60 minutes. The reaction was stopped with 50 μl of 2% (v/v) H3PO4, plates were aspirated and washed two times with 200 μl 0.9% (w/v) NaCl. Incorporation of ^33Pi (counting of “cpm”) was determined with a microplate scintillation counter.
The compounds are dissolved to 10 mM in DMSO. Where needed, solutions are sonicated in a bath sonicator.
Table 4 provides the pIC50 values and % Remaining activity values at two concentrations (1 μM and 0.1 μM) of the compounds according to the invention, obtained using the above mentioned kinase assay.

T1 sequence (Q9H0K1 whole entry): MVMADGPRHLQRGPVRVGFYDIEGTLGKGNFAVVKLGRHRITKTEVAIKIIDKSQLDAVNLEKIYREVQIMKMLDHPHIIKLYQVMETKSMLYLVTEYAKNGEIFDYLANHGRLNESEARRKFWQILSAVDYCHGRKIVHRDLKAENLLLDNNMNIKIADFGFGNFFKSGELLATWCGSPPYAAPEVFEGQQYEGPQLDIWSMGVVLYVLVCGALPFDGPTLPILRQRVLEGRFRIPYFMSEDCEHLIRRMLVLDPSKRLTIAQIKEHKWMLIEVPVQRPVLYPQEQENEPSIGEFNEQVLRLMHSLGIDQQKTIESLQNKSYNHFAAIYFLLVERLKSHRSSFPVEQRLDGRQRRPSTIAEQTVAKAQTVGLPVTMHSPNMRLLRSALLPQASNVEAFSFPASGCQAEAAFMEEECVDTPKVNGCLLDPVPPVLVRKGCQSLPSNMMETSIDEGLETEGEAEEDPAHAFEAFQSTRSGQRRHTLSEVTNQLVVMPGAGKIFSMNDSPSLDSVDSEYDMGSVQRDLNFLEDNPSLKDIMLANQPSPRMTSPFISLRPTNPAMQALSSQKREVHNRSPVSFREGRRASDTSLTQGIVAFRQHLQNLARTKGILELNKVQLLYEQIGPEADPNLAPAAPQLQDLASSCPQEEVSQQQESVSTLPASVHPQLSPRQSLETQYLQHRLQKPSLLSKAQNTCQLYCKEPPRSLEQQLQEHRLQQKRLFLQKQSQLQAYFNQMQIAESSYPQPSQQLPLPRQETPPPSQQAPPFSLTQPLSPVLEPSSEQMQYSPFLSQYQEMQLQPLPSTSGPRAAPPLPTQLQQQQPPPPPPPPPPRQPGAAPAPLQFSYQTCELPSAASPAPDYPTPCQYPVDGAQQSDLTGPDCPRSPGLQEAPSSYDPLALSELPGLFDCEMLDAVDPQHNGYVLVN

| Structure (SMILES) | melting point [°C] | remaining activity at 0.1 µM (SIK2 recombinant protein) [%] | remaining activity at 1 µM (SIK2 recombinant protein) [%] | IC50 (SIK2 recombinant protein) [nM] |
| --- | --- | --- | --- | --- |
| CNCCN1CCOc2cccc(c2)-c2cnn3ccc(nc23)OCC1 (as salt: HCl) [Compound H86] | 247 |  |  |  |
| c1cc2cc(c1)-c1cnn3ccc(nc13)OCCCNCCCN2 (as salt: HCl) [Compound H89] | 273.3 |  |  |  |
| O=C(C1CC1)N1CCNc2ccn3ncc(c3n2)-c2cc(CO)cc(c2)OCC1 [Compound B75] |  | < 50 | < 50 |  |
| CNCCN1CCOc2cccc(c2)-c2cnn3ccc(nc23)OCC1 [Compound H86] |  | < 50 | < 50 | < 100 |
| c1cc2cc(c1)-c1cnn3ccc(nc13)OCCCNCCO2 [Compound H87] |  | > 50 | < 50 | < 100 |
| c1cc2cc(c1)-c1cnn3ccc(nc13)NCCCNCCCO2 [Compound H88] |  | < 50 | < 50 | < 100 |
| c1cc2cc(c1)-c1cnn3ccc(nc13)OCCCNCCCN2 [Compound H89] |  | > 50 | < 50 | < 100 |
| FC(F)(F)c1cc2cc(c1)-c1cnn3ccc(nc13)NCCCNCCO2 [Compound H90] | > 300 | < 50 | < 50 | < 100 |
| CN1CCCNc2ccn3ncc(c3n2)-c2cc(cc(C(F)(F)F)c2)OCC1 [Compound H91] |  | < 50 | < 50 | < 100 |
| Cc1cc2cc(c1)-c1cnn3ccc(nc13)NCCCNCCO2 [Compound H92] | > 300 | < 50 | < 50 | < 100 |
| Cc1cc2cc(c1)-c1cnn3ccc(nc13)NCCCN(C)CCO2 [Compound H93] |  | < 50 | < 50 | < 100 |
| CN1CCCOc2cccc(c2)-c2cnn3ccc(nc23)NCC1 [Compound H94] | 288 |  |  | < 100 |
| CCN1CCCNc2ccn3ncc(c3n2)-c2cc(C)cc(c2)OCC1 [Compound H95] |  | < 50 | < 50 | < 100 |
| OCc1cc2cc(c1)-c1cnn3ccc(nc13)NCCCNCCO2 [Compound H96] |  | < 50 | < 50 | < 100 |
| OCCN1CCNc2ccn3ncc(c3n2)-c2cc(Cl)cc(c2)OCC1 [Compound H97] | 285.2 | < 50 | < 50 | < 100 |
| c1cc2cc(c1)-c1cnn3ccc(nc13)SCCNCCCO2 [Compound H98] | 178.1 | < 50 | < 50 | 100 to 1000 |
| c1cc2cc(c1)-c1cnc3ccc(nn13)SCCNCCCO2 [Compound H99] | 125.6 |  |  | 100 to 1000 |
| OCc1cc2cc(c1)-c1cnn3ccc(nc13)NCCCNCCN2 [Compound H100] |  | < 50 | < 50 | < 100 |

The next lines start with the values.

| melting point [°C] | remaining activity at 0.1 µM (SIK2 recombinant protein) [%] | remaining activity at 1 µM (SIK2 recombinant protein) [%] | IC50 (SIK2 recombinant protein) [nM] | Structure (SMILES) |
| --- | --- | --- | --- | --- |
| > 300 | < 50 | < 50 | < 100 | CN(C)CCNC(=O)N1CCNCCOc2cccc(c2)-c2cnn3ccc1nc23 [Compound A11] |
|  | < 50 | < 50 | < 100 | COCc1cc2cc(c1)-c1cnn3ccc(nc13)NCCNCCO2 [Compound H78] |
| > 300 |  |  | < 100 | COCc1cc2cc(c1)-c1cnn3ccc(nc13)NCCN(C(=O)C1CC1)CCO2 [Compound H79] |
|  |  |  | < 100 | OCc1cc2cc(c1)-c1cnn3ccc(nc13)NCCNCCO2 [Compound H80] |
| 179.1 | < 50 | < 50 | < 100 | OCc1cc2cc(c1)-c1cnn3ccc(nc13)NCCN(CC1CC1)CCO2 [Compound H81] |
| > 300 | < 50 | < 50 | < 100 | Cc1ccc2cc1OCCNCCNc1ccn3ncc-2c3n1 [Compound H82] |
| 246.2 | < 50 | < 50 | < 100 | Fc1cc2cc(c1)-c1cnn3ccc(nc13)NCCN(C1CCNCC1)CCO2 [Compound H83] |
| > 300 | < 50 | < 50 | < 100 | NCCN1CCNc2ccn3ncc(c3n2)-c2cccc(c2)OCC1 [Compound H84] |
| 173.1 | < 50 | < 50 | < 100 | c1cc2cc(c1)-c1cnc3ccc(nn13)SCCNCCCN2 [Compound H85] |
